One may read the Kd as the equilibrium constant for the complex coming apart.

In this assay the target is T1, BRD4-BD2 (Homo sapiens, UniProt O60885).
T1 construct: made in house; host or cells: T7 phage grown in an E. coli host derived from BL21
Briefly: bromoKdELECT assay for binding affinity to BRD4-BD2. The settings on record: Table 7. As for the experimental part: Compounds were tested using a bromoKdELECT assay. T7 phage strains displaying bromodomains were grown in parallel in 24-well blocks in an E. coli host derived from the BL21 strain. E. coli were grown to log-phase and infected with T7 phage from a frozen stock (multiplicity of infection=0.4) and incubated with shaking at 32° C. until lysis (90-150 minutes). The lysates were centrifuged (5,000×g) and filtered (0.2 μm) to remove cell debris. Streptavidin-coated magnetic beads were treated with biotinylated small molecule or acetylated peptide ligands for 30 minutes at room temperature to generate affinity resins for bromodomain assays. The liganded beads were blocked with excess biotin and washed with blocking buffer (SeaBlock (Pierce), 1% BSA, 0.05% Tween 20, 1 mM DTT) to remove unbound ligand and to reduce nonspecific phage binding. Binding reactions were assembled by combining bromodomains, liganded affinity beads, and test compounds in 1× binding buffer (17% SeaBlock, 0.33×PBS, 0.04% Tween 20, 0.02% BSA, 0.004% Sodium azide, 7.4 mM DTT). Test compounds were prepared as 1000× stocks in 100% DMSO. Kds were determined using an 11-point 3-fold compound dilution series with one DMSO control point. All compounds for Kd measurements are distributed by acoustic transfer (non-contact dispensing) in 100% DMSO. The compounds were then diluted directly into the assays such that the final concentration of DMSO was 0.09%. All reactions performed in polypropylene 384-well plates. Each was a final volume of 0.02 ml. The assay plates were incubated at room temperature with shaking for 1 hour and the affinity beads were washed with wash buffer (1×PBS, 0.05% Tween 20). The beads were then resuspended in elution buffer (1×PBS, 0.05% Tween 20, 2 μM non-biotinylated affinity ligand) and incubated at room temperature with shaking for 30 minutes. The bromodomain concentration in the eluates was measured by qPCR.

In turn, `COCC[C@@H]1N=C(c2ccc(CCCOC3CCN(c4ncc(C(=O)N[C@H]5C(C)(C)[C@H](Oc6ccc(C#N)c(Cl)c6)C5(C)C)cn4)CC3)cc2)c2c(sc(C)c2C)-n2c(C)nnc21` [Compound I-227, N-[3-(3-chloro-4-cyano-phenoxy)-2,2,4,4-tetramethyl-cyclobutyl]-2-[4-[3-[4-[(9S)-9-(2-methoxyethyl)-4,5,13-trimethyl-3-thia-1,8,11,12-tetrazatricyclo[8.3.0.02,6]trideca-2(6),4,7,10,12-pentaen-7-yl]phenyl]propoxy]-1-piperidyl]pyrimidine-5-carboxamide] had a dissociation constant Kd above 2500 nM. The compound `CCNC(=O)C[C@@H]1N=C(c2ccc(N(C)CC3CN(c4ncc(C(=O)N[C@H]5C(C)(C)[C@H](Oc6ccc(C#N)c(Cl)c6)C5(C)C)cn4)C3)cc2)c2c(sc(C)c2C)-n2c(C)nnc21` [Compound I-107] gave a dissociation constant (Kd) of 50 to 500 nM. The result for `CCNC(=O)C[C@@H]1N=C(c2ccc(OCCOC3CCN(c4ncc(C(=O)N[C@H]5C(C)(C)[C@H](Oc6ccc(C#N)c(Cl)c6)C5(C)C)cn4)CC3)c(F)c2)c2c(sc(C)c2C)-n2c(C)nnc21` [Compound I-76] reads 50 to 500 nM.

For the compound `Cc1sc2c(c1C)C(c1ccc(CCCOC3CCN(c4ncc(C(=O)N[C@H]5C(C)(C)[C@H](Oc6ccc(C#N)c(Cl)c6)C5(C)C)cn4)CC3)cc1)=N[C@@H](Cc1ncco1)c1nnc(C)n1-2` [Compound I-131, N-[3-(3-chloro-4-cyano-phenoxy)-2,2,4,4-tetramethyl-cyclobutyl]-2-[4-[3-[4-[(9S)-4,5,13-trimethyl-9-(oxazol-2-ylmethyl)-3-thia-1,8,11,12-tetrazatricyclo[8.3.0.02,6]trideca-2(6),4,7,10,12-pentaen-7-yl]phenyl]propoxy]-1-piperidyl]pyrimidine-5-carboxamide], the Kd was above 2500 nM.

`CCN(C)C(=O)C[C@@H]1N=C(c2ccc(OCCOC3CCN(c4ncc(C(=O)N[C@H]5C(C)(C)[C@H](Oc6ccc(C#N)c(Cl)c6)C5(C)C)cn4)CC3)cc2)c2c(sc(C)c2C)-n2c(C)nnc21` [Compound I-66] yielded a Kd of 500 to 2500 nM. As to `CCN(C)C(=O)C[C@@H]1N=C(c2ccc(CCCOC3CCN(c4ncc(C(=O)N[C@H]5C(C)(C)[C@H](Oc6ccc(C#N)c(Cl)c6)C5(C)C)cn4)CC3)cc2)c2c(sc(C)c2C)-n2c(C)nnc21` [Compound I-101], the Kd was above 2500 nM. In the case of `CCNC(=O)C[C@@H]1N=C(c2ccc(OCCOC3CCN(c4ncc(C(=O)N[C@H]5C(C)(C)[C@H](Oc6ccc(C#N)c(Cl)c6)C5(C)C)cn4)CC3)c(F)c2F)c2c(sc(C)c2C)-n2c(C)nnc21` [Compound I-73] it was 50 to 500 nM; in that of `Cc1sc2c(c1C)C(c1ccc(Cl)cc1)=N[C@@H](CC(=O)NCCOCCOCCOC1CCN(c3ncc(C(=O)N[C@H]4C(C)(C)[C@H](Oc5ccc(C#N)c(Cl)c5)C4(C)C)cn3)CC1)c1nnc(C)n1-2` [Compound I-7], below 50 nM; in that of `CCNC(=O)C[C@@H]1N=C(c2ccc(N3CCC(OC4CCN(c5ncc(C(=O)N[C@H]6C(C)(C)[C@H](Oc7ccc(C#N)c(Cl)c7)C6(C)C)cn5)CC4)CC3)cc2)c2c(sc(C)c2C)-n2c(C)nnc21` [Compound I-114], 500 to 2500 nM.

As for `CCNC(=O)C[C@@H]1N=C(c2ccc(OCCOC3CCN(c4ncc(C(=O)N[C@H]5C(C)(C)[C@H](Oc6ccc(C#N)c(Cl)c6)C5(C)C)cn4)CC3)cc2)c2c(sc(C)c2C)-n2c(C)nnc21` [Compound I-60, N-((1r,3r)-3-(3-chloro-4-cyanophenoxy)-2,2,4,4-tetramethylcyclobutyl)-2-(4-(2-(4-((S)-6-(2-(ethylamino)-2-oxoethyl)-2,3,9-trimethyl-6H-thieno[3,2-f][1,2,4]triazolo[4,3-a][1,4]diazepin-4-yl)phenoxy)ethoxy)piperidin-1-yl)pyrimidine-5-carboxamide], the dissociation constant (Kd) is 50 to 500 nM. `Cc1sc2c(c1C)C(c1ccc(CCCOC3CCN(c4ncc(C(=O)N[C@H]5C(C)(C)[C@H](Oc6ccc(C#N)c(Cl)c6)C5(C)C)cn4)CC3)cc1)=N[C@@H](C)c1nnc(C)n1-2` [Compound I-228, N-[3-(3-chloro-4-cyano-phenoxy)-2,2,4,4-tetramethyl-cyclobutyl]-2-[4-[3-[4-[(9S)-4,5,9,13-tetramethyl-3-thia-1,8,11,12-tetrazatricyclo [8.3.0.02,6]trideca-2(6),4,7,10,12-pentaen-7-yl]phenyl]propoxy]-1-piperidyl]pyrimidine-5-carboxamide] displayed a Kd above 2500 nM.

With `CCNC(=O)C[C@@H]1N=C(c2ccc(CCCC3CCN(c4ncc(C(=O)N[C@H]5C(C)(C)[C@H](Oc6ccc(C#N)c(Cl)c6)C5(C)C)cn4)CC3)cc2)c2c(sc(C)c2C)-n2c(C)nnc21` [Compound I-95], the Kd was above 2500 nM.

Take `Cc1sc2c(c1C)C(c1ccc(CCCOC3CCN(c4ncc(C(=O)N[C@H]5C(C)(C)[C@H](Oc6ccc(C#N)c(Cl)c6)C5(C)C)cn4)CC3)cc1)=N[C@@H](CC(=O)NC1CC1)c1nnc(C)n1-2` [Compound I-102]: the dissociation constant (Kd) is 50 to 500 nM. The result for `CCNC(=O)C[C@@H]1N=C(c2ccc(N(C)CCN3CCN(c4ncc(C(=O)N[C@H]5C(C)(C)[C@H](Oc6ccc(C#N)c(Cl)c6)C5(C)C)cn4)CC3)cc2)c2c(sc(C)c2C)-n2c(C)nnc21` [Compound I-108] reads 500 to 2500 nM; that for `CCNC(=O)C[C@@H]1N=C(c2ccc(N3CCC(N(C)C4CCN(c5ncc(C(=O)N[C@H]6C(C)(C)[C@H](Oc7ccc(C#N)c(Cl)c7)C6(C)C)cn5)CC4)CC3)cc2)c2c(sc(C)c2C)-n2c(C)nnc21` [Compound I-113], 50 to 500 nM. In the case of `Cc1sc2c(c1C)C(c1ccc(CCCOC3CCN(c4ncc(C(=O)N[C@H]5C(C)(C)[C@H](Oc6ccc(C#N)c(Cl)c6)C5(C)C)cn4)CC3)cc1)=N[C@@H](CC(=O)NC(C)C)c1nnc(C)n1-2` [Compound I-100] it was 500 to 2500 nM; in that of `CCNC(=O)C[C@@H]1N=C(c2ccc(OCCOC3CCN(c4ncc(C(=O)N[C@H]5C(C)(C)[C@H](Oc6ccc(C#N)c(Cl)c6)C5(C)C)cn4)CC3)cc2F)c2c(sc(C)c2C)-n2c(C)nnc21` [Compound I-75], 50 to 500 nM; in that of `CCNC(=O)C[C@@H]1N=C(c2ccc(N(C)C3CN(CC4CCN(c5ncc(C(=O)N[C@H]6C(C)(C)[C@H](Oc7ccc(C#N)c(Cl)c7)C6(C)C)cn5)CC4)C3)cc2)c2c(sc(C)c2C)-n2c(C)nnc21` [Compound I-119], 50 to 500 nM. The result for `CCNC(=O)C[C@@H]1N=C(c2ccc(OCC3CN(c4ncc(C(=O)N[C@H]5C(C)(C)[C@H](Oc6ccc(C#N)c(Cl)c6)C5(C)C)cn4)C3)cc2)c2c(sc(C)c2C)-n2c(C)nnc21` [Compound I-71] reads below 50 nM.

The values are drawn from patent US20260062422A1 (Halda Therapeutics OpCo, Inc., priority 2022, published 2026).
